From US20230313296A1, “USING FLUORESCENT COLLAGEN α 1(I) AND α 2(I) mRNAs TO SCREEN DRUG CANDIDATES” (Florida State University Research Foundation, Inc., priority 2022, published 2023)

Tests used:
[1] = tested on: complex of recombinant LA-domain of LARP6 with 5′SL RNA; assay: Gel mobility shift assay of LA-domain/5′SL RNA complex; type: binding; details: FIG. 6 lanes 4 and 5
Description: FIG. 6 is a gel mobility shift assay showing free RNA (RNA) and complex of LA-domain bound to RNA (RNA/LA). Lane 1 contains RNA only. Lane 2 contains the RNA/LA complex in absence of the test compound. Lanes 3-5 show dissociation of RNA/LA complexes with the test compound.
The inhibitory effect of this test compound on LARP6 binding was directly tested by gel mobility shift experiments, the results of which are in FIG. 6. This assay confirms the formation of a protein/RNA complex by physically separating them from free RNA. Without the test compound, the recombinant LA-domain of LARP6 formed a complex with 5′SL RNA (FIG. 6, lane 2, RNA/LA). […] This proves that the fluorescent 5′SL RNA compounds can be used to identify molecules that interact with 5′SL RNA and that are competitors of LARP6 binding and may be antifibrotic drugs.

[2] = tested on: collagen ɑ1(I) 5′SL mRNA (2AP at G10); assay: Fluorescence measurement of the fluorescent ɑ1(I) 5′SL compound with test compound; type: binding, human; details: test compound added in micromolar concentrations; FIG. 5 top panel
Description: When the first fluorescent compound has the fluorophore 2AP substituted at the G10 position of the collagen ɑ1(I) 5′ stem loop mRNA and the fluorescence intensity increases, this indicates the first fluorescent compound has bound to LARP6.
(§1) The fluorescence intensity of the 2AP and PC fluorophores depends on their environment in the RNA fold, and the environment changes upon LARP6 or test compound binding to the RNA. The increase in fluorescence is seen if a fluorophore rotates outwards from its position within the RNA. This was seen when LARP6 bound to the fluorescent ɑ1(I) 5′SL compound. The fluorescence decreases if a fluorophore is masked by the bound drug or LARP6.
(§2) Referring to FIG. 5, the fluorescence measurements were performed using epirubicin as the test compound or drug.

[3] = tested on: collagen ɑ2(I) 5′SL mRNA (PC at C37); assay: Fluorescence measurement of the fluorescent ɑ2(I) 5′SL compound with test compound; type: binding, human; details: increasing drug concentrations; FIG. 5 bottom panel
Description: When the second fluorescent compound has the fluorophore PC at the C37 position of the collagen ɑ2(I) 5′ stem loop mRNA and the fluorescence intensity decreases when contacted with LARP6, this indicates binding of the second fluorescent compound to LARP6.
as §1, §2

[4] = molecular target: T1, recombinant LA-domain of LARP6 (Homo sapiens, UniProt Q9BRS8); assay: Fluorescence of the fluorescent ɑ1(I) 5′SL compound on LA-domain binding; details: saturating amounts of LA-domain vs free compound; p<0.0001; FIG. 3
T1 construct: recombinant LA-domain of LARP6
T1 sequence (Q9BRS8 86-177 limits assumed): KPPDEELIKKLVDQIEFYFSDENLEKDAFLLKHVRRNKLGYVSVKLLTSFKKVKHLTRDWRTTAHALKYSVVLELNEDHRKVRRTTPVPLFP
Protocol: The increase resulted from flipping of the 2AP at the G10 position out of the fold. The increase in intensity of the excitation spectrum (left, measured at 370 nm emission) and the emission spectrum (right, measured at 310 nm excitation) were apparent when increasing concentrations of recombinant LA-domain of LARP6 were added to the sensor. The LA-domain is necessary and sufficient for 5′SL RNA recognition by LARP6 and recapitulates the full size LARP6 binding.
The increase in intensity of fluorescence emission with binding of the LA-domain was quantified by measuring the fluorescence of free fluorescent ɑ1(I) 5′SL compound and the same compound bound with saturating amounts of the LA-domain.
The intensity increased about 2-fold with statistical significance of p<0.0001.

[5] = molecular target: T1, recombinant LA-domain of LARP6; assay: Fluorescence of the fluorescent ɑ2(I) 5′SL compound on LA-domain binding; details: increasing concentrations of recombinant LA-domain; FIG. 4
Description: This compound was less bright because its fluorophore has an emission that is about 7-fold less intense than that of the fluorescent ɑ1(I) 5′SL compound.
(§3) The decrease in the excitation spectrum (left, measured at 450 nm emission) and the emission spectrum (right, measured at 340 nm excitation) with increasing concentrations of recombinant LA-domain is shown in FIG. 5.

LARP6 LA-domain = molecular target: T2, LARP6 LA-domain (UniProt Q9BRS8 Q9BRS8:86-177); assay: pyrrolo-cytidine fluorescence decreases with increasing LA-domain; details: label: pyrrolo-cytidine at position 37; 5' stem-loop
T2 sequence: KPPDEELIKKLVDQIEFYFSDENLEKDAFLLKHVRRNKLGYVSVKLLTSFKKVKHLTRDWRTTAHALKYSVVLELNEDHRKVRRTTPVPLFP
Description: as §3

COc1cccc2c1C(=O)c1c(O)c3c(c(O)c1C2=O)C[C@@](O)(C(=O)CO)C[C@@H]3O[C@H]1C[C@H](N)[C@@H](O)[C@H](C)O1 [epirubicin]
concentration of test compound at which formation of RNA/LA complex was diminished [1]: > 50 µM
change of fluorescence intensity of the fluorescent ɑ1(I) 5′SL compound [2]: decreased in the concentration dependent manner
change of fluorescence intensity of the fluorescent ɑ2(I) 5′SL compound [3]: decrease in fluorescence with increasing drug concentrations

fluorescent ɑ1(I) 5′SL compound: SEQ ID NO: 1 collagen ɑ1(I) 5′SL RNA with G10 nucleotide substituted with 2-amino-purine (2AP) (CCACAAAGAGUCUACAUGUCUAGGGUCUAGACAUGUUCAGCUUUGUGG; G10 replaced by 2-aminopurine; listed as Homo sapiens)
increase in intensity of fluorescent emission on binding of the LA-domain [4]: about 2 fold

fluorescent ɑ2(I) 5′SL compound: SEQ ID NO: 2 collagen ɑ2(I) 5′SL RNA with C37 nucleotide substituted with pyrrolo-cytidine (PC)
fluorescence response to LA-domain binding [5]: decreasing its fluorescence

B1: fluorescent collagen a2(I) 5'SL (ssRNA)
RNA: CACAAGGAGUCUGCAUGUCUAAGUGCUAGACAUGCUCAGCUUUGUG
modifications: C37 substituted with pyrrolo-cytidine
binding result (LARP6 LA-domain): binds
